One assay deals with BRM (Homo sapiens, UniProt P51531). Description: ATPase catalytic activity assay of BRM (ADP-Glo). It counts as biochemical. The note with it: for IC50: read-out: BRM IC50 (μM)*. As for the experimental part:
(§1) The ATPase catalytic activity of BRM or BRG-1 was measured by the in vitro biochemical assay using ADP-Glo™ (Promega, V9102). The ADP-Glo™ kinase assay is performed in two steps once the reaction is complete. The first step is to deplete any unconsumed ATP in the reaction. The second step is to convert the reaction product ADP to ATP, which will be utilized by the luciferase to generate luminesce and be detected by a luminescence reader, such as Envision.
(§2) Then following addition of 5 μL of ADP-Glo™ Reagent provided in the kit, the reaction incubates at room temperature for 40 minutes. Then 10 μL of Kinase Detection Reagent provided in the kit is added to convert ADP to ATP, and the reaction incubates at room temperature for 60 minutes. Finally, luminescence measurement is collected with a plate-reading luminometer, such as Envision.
(§3) The ADP-Glo™ kinase assay is performed in two steps once the reaction is complete. The first step is to deplete any unconsumed ATP in the reaction. The second step is to convert the reaction product ADP to ATP, which will be utilized by the luciferase to generate luminesce and be detected by a luminescence reader, such as Envision.
(In ADP-Glo the light output rises with the ADP produced.)

The next assay deals with BRG-1 (Homo sapiens, UniProt P51532). Description: ATPase catalytic activity assay of BRG-1 (ADP-Glo). Conditions: ATPase catalytic activity, ADP-Glo; for IC50: read-out: BRG1 IC50 (μM)*; for Emax: read-out: BRG1 Max % Inhibition. It counts as biochemical. As for the experimental part:
as §1, §2, §3

Read-outs that look alike come from different tables or passages of the source.

Sequence of BRG-1 (P51532 whole entry): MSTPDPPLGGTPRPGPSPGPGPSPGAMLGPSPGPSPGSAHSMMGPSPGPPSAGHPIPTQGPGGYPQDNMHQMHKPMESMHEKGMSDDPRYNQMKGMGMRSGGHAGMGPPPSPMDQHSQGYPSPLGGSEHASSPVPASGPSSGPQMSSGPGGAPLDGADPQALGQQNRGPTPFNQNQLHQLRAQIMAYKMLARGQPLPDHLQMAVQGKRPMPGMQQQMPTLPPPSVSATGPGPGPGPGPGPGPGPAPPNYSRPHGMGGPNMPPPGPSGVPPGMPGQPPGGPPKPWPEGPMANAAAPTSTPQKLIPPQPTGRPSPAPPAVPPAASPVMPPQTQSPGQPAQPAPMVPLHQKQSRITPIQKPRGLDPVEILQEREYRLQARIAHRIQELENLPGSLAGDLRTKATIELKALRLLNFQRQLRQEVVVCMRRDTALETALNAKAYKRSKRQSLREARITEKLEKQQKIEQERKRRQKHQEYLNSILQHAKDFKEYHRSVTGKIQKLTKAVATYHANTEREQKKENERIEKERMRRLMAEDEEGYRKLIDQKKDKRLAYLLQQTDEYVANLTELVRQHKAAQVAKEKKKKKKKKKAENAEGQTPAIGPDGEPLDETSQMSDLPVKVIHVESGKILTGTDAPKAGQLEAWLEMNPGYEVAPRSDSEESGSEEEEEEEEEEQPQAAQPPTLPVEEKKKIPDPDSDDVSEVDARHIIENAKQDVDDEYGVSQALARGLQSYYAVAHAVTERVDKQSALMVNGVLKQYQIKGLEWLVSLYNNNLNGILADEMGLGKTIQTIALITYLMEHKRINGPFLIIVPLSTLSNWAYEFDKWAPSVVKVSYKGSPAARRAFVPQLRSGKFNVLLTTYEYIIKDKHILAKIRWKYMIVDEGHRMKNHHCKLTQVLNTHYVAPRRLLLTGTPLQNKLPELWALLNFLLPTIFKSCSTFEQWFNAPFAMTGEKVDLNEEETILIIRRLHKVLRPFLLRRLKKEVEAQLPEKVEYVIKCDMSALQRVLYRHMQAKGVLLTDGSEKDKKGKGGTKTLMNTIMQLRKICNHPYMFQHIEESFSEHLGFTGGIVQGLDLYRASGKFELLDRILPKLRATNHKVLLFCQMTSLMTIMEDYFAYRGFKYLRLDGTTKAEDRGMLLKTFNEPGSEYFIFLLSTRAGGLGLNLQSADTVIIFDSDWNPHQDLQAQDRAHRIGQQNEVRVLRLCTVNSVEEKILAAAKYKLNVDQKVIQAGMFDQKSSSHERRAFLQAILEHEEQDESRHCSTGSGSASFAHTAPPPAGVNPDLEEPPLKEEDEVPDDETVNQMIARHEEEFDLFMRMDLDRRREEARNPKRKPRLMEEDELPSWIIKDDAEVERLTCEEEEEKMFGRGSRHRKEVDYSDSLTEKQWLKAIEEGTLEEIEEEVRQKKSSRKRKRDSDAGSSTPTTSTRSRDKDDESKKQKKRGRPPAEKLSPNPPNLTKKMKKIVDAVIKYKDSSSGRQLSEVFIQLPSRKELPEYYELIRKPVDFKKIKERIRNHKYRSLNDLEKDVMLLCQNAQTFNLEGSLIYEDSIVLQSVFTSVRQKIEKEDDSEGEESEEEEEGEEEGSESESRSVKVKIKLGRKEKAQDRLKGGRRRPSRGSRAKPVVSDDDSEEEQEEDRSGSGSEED
Sequence of BRM (P51531 whole entry): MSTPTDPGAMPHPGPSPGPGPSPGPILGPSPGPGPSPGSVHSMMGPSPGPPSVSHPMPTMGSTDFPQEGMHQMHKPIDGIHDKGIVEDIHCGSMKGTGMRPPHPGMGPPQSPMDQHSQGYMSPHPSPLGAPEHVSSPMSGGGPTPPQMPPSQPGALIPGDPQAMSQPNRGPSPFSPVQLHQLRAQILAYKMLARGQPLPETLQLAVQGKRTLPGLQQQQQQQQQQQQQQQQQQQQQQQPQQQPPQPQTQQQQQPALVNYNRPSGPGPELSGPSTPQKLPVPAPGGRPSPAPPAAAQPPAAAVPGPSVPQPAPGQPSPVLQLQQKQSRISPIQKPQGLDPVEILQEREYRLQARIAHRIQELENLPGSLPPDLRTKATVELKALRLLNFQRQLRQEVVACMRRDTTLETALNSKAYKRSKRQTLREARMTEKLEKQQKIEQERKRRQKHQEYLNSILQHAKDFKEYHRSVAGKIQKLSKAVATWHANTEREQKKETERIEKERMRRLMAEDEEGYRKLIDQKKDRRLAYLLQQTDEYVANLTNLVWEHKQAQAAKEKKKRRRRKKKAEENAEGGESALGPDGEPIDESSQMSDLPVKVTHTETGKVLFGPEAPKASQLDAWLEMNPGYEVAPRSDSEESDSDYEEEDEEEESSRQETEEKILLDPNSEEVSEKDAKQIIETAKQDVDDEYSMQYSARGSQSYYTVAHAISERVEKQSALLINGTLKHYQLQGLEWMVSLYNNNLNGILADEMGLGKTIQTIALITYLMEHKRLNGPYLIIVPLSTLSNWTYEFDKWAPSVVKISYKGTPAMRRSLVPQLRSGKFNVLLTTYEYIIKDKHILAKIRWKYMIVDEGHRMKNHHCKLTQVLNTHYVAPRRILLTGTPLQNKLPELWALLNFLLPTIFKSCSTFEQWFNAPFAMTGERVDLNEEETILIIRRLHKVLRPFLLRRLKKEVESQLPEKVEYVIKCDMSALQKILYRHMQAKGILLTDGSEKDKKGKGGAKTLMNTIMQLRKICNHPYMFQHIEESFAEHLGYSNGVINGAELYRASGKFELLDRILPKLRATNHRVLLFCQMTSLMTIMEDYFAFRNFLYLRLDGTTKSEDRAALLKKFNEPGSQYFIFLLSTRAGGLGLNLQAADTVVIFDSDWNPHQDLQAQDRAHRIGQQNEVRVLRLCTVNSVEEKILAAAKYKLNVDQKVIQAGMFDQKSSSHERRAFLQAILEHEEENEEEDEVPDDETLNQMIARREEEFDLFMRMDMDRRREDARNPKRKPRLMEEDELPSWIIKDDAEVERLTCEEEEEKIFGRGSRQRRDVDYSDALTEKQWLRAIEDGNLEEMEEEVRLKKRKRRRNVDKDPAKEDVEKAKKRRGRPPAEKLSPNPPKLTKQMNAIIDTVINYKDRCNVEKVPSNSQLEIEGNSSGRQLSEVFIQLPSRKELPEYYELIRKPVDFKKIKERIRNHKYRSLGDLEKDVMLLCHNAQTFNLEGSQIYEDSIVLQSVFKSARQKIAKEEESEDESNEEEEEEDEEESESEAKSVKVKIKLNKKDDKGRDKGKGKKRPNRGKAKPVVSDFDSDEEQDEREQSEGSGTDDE

As usually defined, the IC50 is the concentration needed to halve the response being measured. For `C[C@@H]1CN(c2cccc(-c3csc(NC(=O)CNC(=O)c4ccc5c(c4)[C@](C)(CO)CCO5)n3)c2)C[C@H](C)O1` [Compound 165, (R)-N-(2-((4-(3-((cis)-2,6-dimethylmorpholino)phenyl)thiazol-2-yl)amino)-2-oxoethyl)-4-(hydroxymethyl)-4-methylchroman-6-carboxamide], on BRM, the “BRM Max % Inhibition” value is recorded as more than 90% and the IC50 was 0.1 to 1 µM. Besides, on BRG-1, the IC50 is more than 5 µM and the Emax is less than 40%.

For the compound `CC(C)(CN)c1cccc(C(=O)NCC(=O)Nc2nc(-c3cccc(-c4ccnc(CO)c4)c3)cs2)c1` [Compound 60, 3-(1-amino-2-methylpropan-2-yl)-N-(2-((4-(3-(2-(hydroxymethyl)pyridin-4-yl)phenyl)thiazol-2-yl)amino)-2-oxoethyl)benzamide], on BRM, the “BRM Max % Inhibition” value was more than 95% and the IC50 was less than 0.1 µM. Further, at BRG-1, the 50% inhibitory concentration (IC50) was in the range of 0.1 to 1 µM and the Emax is more than 80%.

As to `COc1cccc(-c2csc(NC(=O)CNC(=O)c3ccc4c(c3)[C@](C)(F)CCOC4)n2)c1` [Compound 279, (R)-5-fluoro-N-(2-((4-(3-methoxyphenyl)thiazol-2-yl)amino)-2-oxoethyl)-5-methyl-1,3,4,5-tetrahydrobenzo[c]oxepine-7-carboxamide], on BRM, the “BRM Max % Inhibition” value is more than 90% and the IC50 was in the range of 0.1 to 1 µM. For the same compound, at BRG-1, the IC50 lay in the range of 0.1 to 1 µM and the Emax is more than 90%.

With `CC(C)(C#N)c1cccc(C(=O)NCC(=O)Nc2nc(-c3cccc(-c4ccncc4)c3)cs2)c1` [Compound 87, 3-(2-cyanopropan-2-yl)-N-(2-oxo-2-((4-(3-(pyridin-4-yl)phenyl)thiazol-2-yl)amino)ethyl)benzamide], at BRM, the “BRM Max % Inhibition” value is more than 80% and the IC50 was 0.1 to 1 µM. On BRG-1, the IC50 was more than 5 µM and the Emax was less than 30%.

On to `CC(C)S(=O)(=O)c1cccc(C(=O)NCC(=O)Nc2nc(-c3cccc(-c4cccc(CN)c4)c3)cs2)c1` [Compound 31, N-(2-((4-(3′-(aminomethyl)-[1,1′-biphenyl]-3-yl)thiazol-2-yl)amino)-2-oxoethyl)-3-(isopropylsulfonyl)benzamide], for which, at BRM, the “BRM Max % Inhibition” value was more than 90% and the IC50 was in the range of 0.1 to 1 µM. Also, on BRG-1, the IC50 is 1 to 5 µM and the Emax is more than 70%.

Consider `Cn1cc(-c2cccc(-c3csc(NC(=O)CNC(=O)c4cccc(C(C)(C)CO)c4)n3)c2)cn1` [Compound 104], for which, at BRM, the “BRM Max % Inhibition” value was more than 90% and the IC50 was in the range of 0.1 to 1 µM. In addition, on BRG-1, the IC50 fell in the range of 1 to 5 µM and the Emax is more than 70%.

In the case of `Cc1cc(-c2cccc(-c3csc(NC(=O)CNC(=O)c4ccc5c(c4)[C@](C)(CO)CCC5)n3)n2)ncn1` [Compound 208, (R)-8-(hydroxymethyl)-8-methyl-N-(2-((4-(6-(6-methylpyrimidin-4-yl)pyridin-2-yl)thiazol-2-yl)amino)-2-oxoethyl)-5,6,7,8-tetrahydronaphthalene-2-carboxamide], at BRM, the “BRM Max % Inhibition” value was more than 95% and the IC50 lay within 0.1 to 1 µM. Moreover, on BRG-1, the IC50 lay in the range of 1 to 5 µM and the Emax is more than 60%.

For `C[C@@H]1CN(c2cccc(-c3csc(NC(=O)CNC(=O)c4cccc([C@H]5COC[C@H]5O)c4)n3)n2)C[C@H](C)O1` (stereo in doubt) [Compound 425, N-(2-((4-(6-((cis)-2,6-dimethylmorpholino)pyridin-2-yl)thiazol-2-yl)amino)-2-oxoethyl)-3-((trans)-4-hydroxytetrahydrofuran-3-yl)benzamide], at BRM (30 nM BRM, 400 μM ATP), the “BRM Max % Inhibition” value was more than 85% and the IC50 was in the range of 0.1 to 1 µM. Further, on BRG-1 (30 nM BRG-1, 400 μM ATP), the IC50 is more than 5 µM and the Emax was more than 85%.

As to `C[C@@H]1CN(c2cccc(-c3csc(NC(=O)CNC(=O)c4ccc5c(c4)[C@](C)(CO)CN5C)n3)c2)C[C@H](C)O1` [Compound 403, (S)-N-(2-((4-(3-((cis)-2,6-dimethylmorpholino)phenyl)thiazol-2-yl)amino)-2-oxoethyl)-3-(hydroxymethyl)-1,3-dimethylindoline-5-carboxamide], on BRM, the “BRM Max % Inhibition” value is recorded as more than 90% and the IC50 was in the range of 0.1 to 1 µM. Also, at BRG-1, the IC50 lay in the range of 1 to 5 µM and the Emax is more than 90%.

Regarding `C[C@@]1(F)COCc2ccc(C(=O)NCC(=O)Nc3nc(-c4cccc(C(F)F)c4)cs3)cc21` [Compound 341, (S)-N-(2-((4-(3-(difluoromethyl)phenyl)thiazol-2-yl)amino)-2-oxoethyl)-4-fluoro-4-methylisochromane-6-carboxamide], at BRM, the “BRM Max % Inhibition” value is more than 95% and the IC50 was less than 0.1 µM. Moreover, on BRG-1, the IC50 is 0.1 to 1 µM and the Emax was more than 95%.

With `Cc1cc(-c2cccc(-c3csc(NC(=O)CNC(=O)c4cccc(S(=O)(=O)C(C)C)c4)n3)c2)ncn1` [Compound 127, 3-isopropylsulfonyl-N-[2-[[4-[3-(6-methylpyrimidin-4-yl)phenyl]thiazol-2-yl]amino]-2-oxoethyl] benzamide], at BRM, the “BRM Max % Inhibition” value is more than 95% and the IC50 was less than 0.1 µM. On BRG-1, the IC50 is 0.1 to 1 µM and the Emax was more than 90%.

With `C[C@@H]1CN(c2cccc(-c3csc(NC(=O)CNC(=O)c4cccc(C5(CF)COC5)c4)n3)c2)C[C@H](C)O1` [Compound 149, N-(2-((4-(3-((cis)-2,6-dimethylmorpholino)phenyl)thiazol-2-yl)amino)-2-oxoethyl)-3-(3-(fluoromethyl)oxetan-3-yl)benzamide], on BRM, the “BRM Max % Inhibition” value is listed as more than 95% and the IC50 was 0.1 to 1 µM. Also, on BRG-1, the IC50 lay in the range of 1 to 5 µM and the Emax was more than 70%.

In the case of `C[C@@H](CO)S(=O)(=O)c1cccc(C(=O)NCC(=O)Nc2nc(-c3cccc(-c4ccncc4)c3)cs2)c1` [Compound 115, (S)-3-((1-hydroxypropan-2-yl)sulfonyl)-N-(2-oxo-2-((4-(3-(pyridin-4-yl)phenyl)thiazol-2-yl)amino)ethyl)benzamide], at BRM, the “BRM Max % Inhibition” value is more than 95% and the IC50 is less than 0.1 µM. Also, on BRG-1, the IC50 is less than 0.1 µM and the Emax is more than 95%.

`C[C@@]1(F)COCc2ccc(C(=O)NCC(=O)Nc3nc(-c4cccc(C(F)F)n4)cs3)cc21` [Compound 331, (S)-N-(2-((4-(6-(difluoromethyl)pyridin-2-yl)thiazol-2-yl)amino)-2-oxoethyl)-4-fluoro-4-methylisochromane-6-carboxamide]: on BRM, the “BRM Max % Inhibition” value was more than 95% and the concentration for half-maximal inhibition (IC50) is less than 0.1 µM. At BRG-1, the IC50 is 0.1 to 1 µM and the Emax is more than 95%.

With `Cc1nccc(-c2cccc(-c3csc(NC(=O)CNC(=O)c4ccc5c(c4)[C@](C)(C#N)CC5)n3)n2)n1` [Compound 249, (3R)-3-cyano-3-methyl-N-[2-[[4-[6-(2-methylpyrimidin-4-yl)-2-pyridyl]thiazol-2-yl]amino]-2-oxo-ethyl]indane-5-carboxamide], on BRM, the “BRM Max % Inhibition” value is recorded as more than 95% and the IC50 is less than 0.1 µM. Further, at BRG-1, the IC50 is less than 0.1 µM and the Emax was more than 95%.

For the compound `CCOC(=O)N1CCCC(c2csc(NC(=O)CNC(=O)c3ccc4c(c3)[C@](C)(F)COC4)n2)C1` (stereo in doubt) [Compound 283, ethyl (S)-3-(2-(2-((S)-4-fluoro-4-methylisochromane-6-carboxamido)acetamido)thiazol-4-yl)piperidine-1-carboxylate], at BRM, the “BRM Max % Inhibition” value is listed as more than 95% and the IC50 was less than 0.1 µM. Moreover, at BRG-1, the IC50 lay in the range of 0.1 to 1 µM and the Emax was more than 95%.

As for `CC(C(F)(F)F)S(=O)(=O)c1cccc(C(=O)NCC(=O)Nc2nc(-c3cccc(-c4ccncc4)c3)cs2)c1` (stereo not shown) [Compound 113, N-(2-oxo-2-((4-(3-(pyridin-4-yl)phenyl)thiazol-2-yl)amino)ethyl)-3-((1,1,1-trifluoropropan-2-yl)sulfonyl)benzamide], at BRM, the “BRM Max % Inhibition” value is more than 80% and the half-maximal inhibitory concentration (IC50) was 0.1 to 1 µM. In addition, on BRG-1, the “BRG1 Max % Inhibition” value is recorded as more than 50% and the IC50 was in the range of 0.1 to 1 µM.

In the case of `C[C@@H]1CN(c2cccc(-c3csc(NC(=O)CNC(=O)c4cccc(C5(C(F)F)CCOC5)c4)n3)c2)C[C@H](C)O1` (stereo partly drawn) [Compound 345, 3-(3-(difluoromethyl)tetrahydrofuran-3-yl)-N-(2-((4-(3-((cis)-2,6-dimethylmorpholino)phenyl)thiazol-2-yl)amino)-2-oxoethyl)benzamide], on BRM, the “BRM Max % Inhibition” value is recorded as more than 95% and the IC50 is less than 0.1 µM. Also, on BRG-1, the half-maximal inhibitory concentration (IC50) lay within 1 to 5 µM and the Emax is more than 95%.

On to `C[C@@H]1CN(c2cccc(-c3csc(NC(=O)CNC(=O)c4ccc5c(c4)C(C)(C#N)COC5)n3)n2)C[C@H](C)O1` (stereo in doubt) [Compound 420, (R)-4-cyano-N-(2-((4-(6-((cis)-2,6-dimethylmorpholino)pyridin-2-yl)thiazol-2-yl)amino)-2-oxoethyl)-4-methylisochromane-6-carboxamide], for which, at BRM (30 nM BRM, 400 μM ATP), the “BRM Max % Inhibition” value is more than 95% and the IC50 was less than 0.1 µM. In addition, at BRG-1 (30 nM BRG-1, 400 μM ATP), the IC50 is less than 0.1 µM and the Emax is more than 95%.

The values above are taken from patent US12685735B2 (Foghorn Therapeutics Inc., priority 2020, dated 2026).
